Experimental data from US20240248074A1, “METHOD AND SYSTEM FOR SINGLE-CELL BIOPHYSICAL PROFILING USING A MICROFLUIDIC DEVICE” (NANYANG TECHNOLOGICAL UNIVERSITY, priority 2021, published 2024).
Entries after “also recorded” stand apart in the source; their conditions may differ. Where two headings read alike, the source gives them in different places.

Key:
primary neutrophils [1] = assay: Annexin V/Propidium iodide (PI) live-dead staining, flow cytometry; type: cell-based, human; settings: Example 5; STS 1 μM, 2 hr (FIG. 18)
primary neutrophils [2] = assay: Multi-parametric biophysical (impedance) profiling of primary neutrophils treated with stimuli; type: cell-based, human; settings: for nucleus opacity (|Z|12 MHz/|Z|0.3 MHz): 2 hr treatment (FIG. 17G); for UMAP projection of biophysical features (shift vs control): Example 6, 10 biophysical features (FIG. 21); for cell size: 2 hr treatment vs control (FIG. 13B, E); for correlation between CD66b expression and cell size: Example 5 (FIG. 20); for electrical size (cell size): 2 hr treatment (FIG. 17D); for electrical deformability index: 2 hr treatment vs untreated neutrophils (FIG. 17F)
primary neutrophils [3] = assay: Flow cytometric analysis of neutrophil activation markers and F-actin; type: cell-based, human; settings: for CD11 b expression / CD66b expression: Example 4, 2 hr treatment (FIG. 14)
Experimental: The staining protocols for leukocyte identification are similar as previously described^50. The samples were stained for 30 min at 4° C. with FITC-labelled anti-human CD11 b and allophycocyanin (APC)-labelled anti-human CD66b antibodies. Non-specific antibody binding was examined using corresponding isotype negative control antibodies. The cells were washed once prior to flow cytometry analysis. All antibodies were purchased from eBioscience (1:20 dilution) and analyzed using a BD LSR Fortessa flow cytometer (BD Biosciences).

HL-60 = assay: Immunostaining and flow cytometric analysis of F-actin in HL-60; type: cell-based; settings: treated HL-60 vs control (FIG. 10 B, D, E)
Excerpt: The effect of cytoskeleton disruptors, such as cytochalasin D (CytoD) and latrunculin B (LatB), on HL-60 deformability, was studied (FIG. 10 A-E).

[4] = system: HL-60 (leukemia cell lines); type: cell-based
[5] = HL-60 treated with cytoskeleton disruptor vs DMSO treated control (FIG. 10)

Compound	nucleus opacity (|Z|12 MHz/|Z|0.3 MHz) (primary neutrophils [2]; Example 5)	UMAP projection of biophysical features (shift vs control) (primary neutrophils [2])	cell size (primary neutrophils [2]; Example 4)	correlation between CD66b expression and cell size (primary neutrophils [2])	electrical size (cell size) (primary neutrophils [2]; Example 5)	electrical deformability index (primary neutrophils [2]; Example 5)	CD11 b expression (primary neutrophils [3])	CD66b expression (primary neutrophils [3])	F-actin expression (HL-60)	electrical deformability index [4, 5]	other results
CN[C@@H]1C[C@H]2O[C@@](C)([C@@H]1OC)n1c3ccccc3c3c4c(c5c6ccccc6n2c5c31)C(=O)NC4 [STS, Staurosporine]	higher nucleus opacity	strong biophysical changes	–	–	–	–	–	–	–	–	Annexin V / PI expression (primary neutrophils [1]): increased Annexin V expression; membrane opacity (primary neutrophils [2]; Example 5, 2 hr treatment vs control (FIG. 17E)): significant increase in membrane opacity
CSCC[C@H](NC=O)C(=O)N[C@@H](CC(C)C)C(=O)N[C@@H](Cc1ccccc1)C(=O)O [fMLP, N-Formylmethionyl-leucyl-phenylalanine]	–	smaller shifts in different directions	larger than control	increase in CD66b expression with cell size	increased	negligible changes	elevated expressions	elevated expressions	–	–	electrical deformability (deformability index) (primary neutrophils [2]; Example 4, 2 hr, fMLP 1 μM, glucose 30 mM, PMA 200 nM, vs untreated control (FIG. 13D)): stiffer cell properties; F-actin expression (MFI) (primary neutrophils [3]; Example 5, 2 hr treatment (FIG. 17C)): highest F-actin expression; also recorded: increased F-actin expression
C/C1=C/C(=O)O[C@@H]2C[C@@H](CC[C@H](C)/C=C\CC1)O[C@@](O)([C@@H]1CSC(=O)N1)C2 [latrunculin B]	–	–	–	–	–	–	–	–	decreased F-actin expression	higher electrical deformability index	–
paraformaldehyde [PFA]	–	–	–	–	–	–	–	–	–	–	cell size [4]: smaller cell size; electrical deformability index [4]: lower than untreated control
C=C1[C@@H](C)[C@H]2[C@H](Cc3ccccc3)NC(=O)[C@]23[C@H](OC(C)=O)/C=C/[C@@](C)(O)C(=O)[C@@H](C)C/C=C/[C@H]3[C@@H]1O [cytochalasin D]	–	–	–	–	–	–	–	–	decreased F-actin expression	higher electrical deformability index	–
CCCCCCCCCCCCCC(=O)O[C@@H]1[C@@H](C)[C@@]2(O)[C@@H](C=C(CO)C[C@]3(O)C(=O)C(C)=C[C@@H]23)[C@@H]2C(C)(C)[C@]12OC(C)=O [PMA, Phorbol Myristate Acetate]	significant decrease in nucleus opacities	strong biophysical changes	larger than control	increase in CD66b expression with cell size	largest increase in cell size	more deformable	elevated expressions	elevated expressions	–	–	impedance profile (cell size / opacity clusters) (primary neutrophils [2]; Example 4, PMA 200 nM, 2 hr): two distinct clusters; impedance profile (cell clusters / populations) (primary neutrophils [2]; Example 5, PMA 200 nM, 2 hr (FIG. 19)): two distinct cell clusters; also recorded: two distinct cell populations of different size and deformability
